± gives the standard deviation of the reports.
Structure (SMILES)	glass transition temperature
*CC(=O)C(*)c1ccccc1 (repeat unit)	110.00 °C
*CC(CCCCCCOc1ccc(/N=N/c2ccc(OC)cc2)cc1)COC(=O)CCCCC(=O)O* (repeat unit)	22.00 °C
*Cc1c(C)c(C)c(CNC(=O)CCCC(=O)N*)c(C)c1C (repeat unit)	192.00 °C
*c1ccc(Cc2ccccc2-n2c(=O)c3cc4c(=O)n(*)c(=O)c4cc3c2=O)cc1 (repeat unit)	356.50 °C
*CC(OC(=O)C(CC(C)C)NC(=O)OCc1ccccc1)C(COC(=O)O*)OC(=O)C(CC(C)C)NC(=O)OCc1ccccc1 (repeat unit)	50.90 °C
*Oc1ccc(C(=O)c2cccc(C(=O)c3ccc(Oc4ccc(Cc5ccc(*)cc5)cc4)cc3)c2)cc1 (repeat unit)	145.00 °C
*CC(*)CC1CCCC1 (repeat unit)	60.00 °C
*CC(*)(C)C(=O)OCCCCCCOc1ccc(C(=O)Oc2ccc(/N=N/c3ccc(F)cc3)c3ccccc23)cc1 (repeat unit)	42.00 °C
*CC(CSCCC)O* (repeat unit)	-61.00 °C
*C(=O)c1ccc2c(c1)C(=O)N(c1cccc(Cc3ccc(Cc4ccc(Cc5cccc(N6C(=O)c7ccc(*)cc7C6=O)c5)cc4)cc3)c1)C2=O (repeat unit)	235.50 °C
*CC(*)c1ccccc1O (repeat unit)	172.00 °C
*Oc1ccc(S(=O)(=O)c2cccc3c(S(=O)(=O)c4ccc(Oc5c(C)cc(-c6cc(C)c(*)c(C)c6)cc5C)cc4)cccc23)cc1 (repeat unit)	262.00 °C
*C/C=C/COC(=O)NCCCCCCNC(=O)O* (repeat unit)	-39.00 °C
*CCCCCCC(c1ccc(O)cc1)C(*)c1ccc(O)cc1C (repeat unit)	18.00 °C
*CCCCCCOc1ccc(/C=C2\CCC/C(=C\c3ccc(O*)c(OC)c3)C2=O)cc1OC (repeat unit)	80.00 °C
*CC(*)c1cc(C(=O)OCC)ccc1-c1ccc(OCCCCCCCC)cc1 (repeat unit)	95.00 °C
*Oc1ccc(Oc2ccc(Oc3ccc(Oc4ccc(OC(=O)c5cccc(C(*)=O)c5)cc4)cc3)cc2)cc1 (repeat unit)	134.00 °C
*c1ccc2c(c1)C(=O)N(c1c(C)cc(-c3cc(C)c(N4C(=O)c5ccc(C(*)(C(F)(F)F)C(F)(F)F)cc5C4=O)c4ccccc34)c3ccccc13)C2=O (repeat unit)	403.00 °C
*CCC1CC2C(CC(*)C2OC(=O)CCCCCCCCCCOc2ccc(-c3ccc(C#N)cc3)cc2)C1OC(=O)CCCCCCCCCCOc1ccc(-c2ccc(C#N)cc2)cc1 (repeat unit)	23.50 °C
*c1cccc(P(=O)(c2cccc(-n3c(=O)c4cc5c(=O)n(*)c(=O)c5c(-c5ccccc5)c4c3=O)c2)c2cc(C(F)(F)F)cc(C(F)(F)F)c2)c1 (repeat unit)	300.00 °C
*CCC(=O)O* (repeat unit)	-24.00 °C
*CC(*)OC(=O)c1cccc(OC)c1 (repeat unit)	44.00 °C
*Oc1ccc(NC(=O)c2ccc(Oc3ccc(C(=O)Nc4ccc(*)cc4)cc3)cc2)cc1 (repeat unit)	274.00 °C
*C1C=C(CCCCCC)C(*)S1 (repeat unit)	58.1 °C
*CCOCCOC(=O)CCCCCCCCCCC(=O)O* (repeat unit)	-71.00 °C
*CCOCCOCCOCCOC(=O)c1ccc(-c2ccc(-c3ccc(C(=O)O*)cc3)cc2)cc1 (repeat unit)	40.00 °C
*CC(*)C(C)=O (repeat unit)	115.00 °C
*CC/C=[C](/*)[Sn]([CH2]CCC)([CH2]CCC)[CH2]CCC (repeat unit)	-80.00 °C
*/C=C/C1CC(*)C(C#N)([Si](C)(C)O[Si](C)(C)C)C1 (repeat unit)	88.00 °C

Further lines, results first:

glass transition temperature	Structure (SMILES)
250.00 °C	*C(=O)Nc1ccc(C(c2ccc(NC(=O)c3ccc4c(c3)C(=O)N(c3c(C)cc(C)c(N5C(=O)c6ccc(*)cc6C5=O)c3C)C4=O)cc2)(C(F)(F)F)C(F)(F)F)cc1 (repeat unit)
327.50 °C	*c1cccc(Cc2cccc(-n3c(=O)c4cc5c(=O)n(*)c(=O)c5cc4c3=O)c2)c1 (repeat unit)
116.00 °C	*CC(*)(C)C(=O)NC(=O)Oc1c(Br)cc(S(=O)(=O)c2cc(Br)c(O)c(Br)c2)cc1Br (repeat unit)
380.50 °C	*c1ccc(Oc2ccc(-c3cc(-c4ccccc4)c4cc5c(-c6ccccc6)cc(*)nc5cc4n3)cc2)cc1 (repeat unit)
158.00 °C	*Oc1ccc(C2(c3ccc(OC(=O)CCCCCCC(*)=O)cc3)c3ccccc3-c3ccccc32)cc1 (repeat unit)
235.00 °C	*CC(=O)Nc1ccc(Oc2ccc(NC(=O)CN3C(=O)c4ccc(C(=O)c5ccc6c(c5)C(=O)N(*)C6=O)cc4C3=O)cc2)cc1 (repeat unit)
180.00 °C	*Oc1ccc(NC(=O)c2cccc(C(=O)Nc3ccc(Oc4ccc(C(C)(C)c5cccc(C(C)(C)c6ccc(*)cc6)c5)cc4)cc3)c2)cc1 (repeat unit)
267.00 °C	*c1ccc(S(=O)(=O)c2ccc(N3C(=O)c4ccc(Oc5ccc(C(C)(C)c6ccc(Oc7ccc8c(c7)C(=O)N(*)C8=O)cc6)cc5)cc4C3=O)cc2)cc1 (repeat unit)
121.00 °C	*c1ccc(Sc2cccc(Sc3ccc(S(*)=O)cc3)c2)cc1 (repeat unit)
41.00 °C	*CC(*)c1ccc(C(=O)CCN2CCOCC2)cc1 (repeat unit)
50.00 °C	*CNC(=O)OCCOC(=O)NCc1ccc(C(C)(C)c2ccc(*)o2)o1 (repeat unit)
-33.00 °C	*O[Si](*)(C)CCCCCCCCCCCOc1ccc(/C=C/c2ccc(OCCCC)cc2)cc1 (repeat unit)
86.00 °C	*CCN(CCOC(=O)c1cc(OCCC2CCN(c3ccc(S(=O)(=O)C(F)(F)C(F)(F)C(F)(F)C(F)(F)C(F)(F)C(F)(F)C(F)(F)C(F)(F)F)cc3)CC2)cc(C(=O)O*)c1)c1ccc(S(=O)(=O)C(F)(F)C(F)(F)C(F)(F)C(F)(F)C(F)(F)C(F)(F)C(F)(F)C(F)(F)F)cc1 (repeat unit)
120.00 °C	*/C=C/C1CC(*)C(C#N)([Si](C)(C)[Si](C)(C)C)C1 (repeat unit)
75.00 °C	*Oc1ccc(CC(NC(=O)CCc2ccc(OC(=O)CCC(*)=O)cc2)C(=O)OCC(C)C)cc1 (repeat unit)
279.00 °C	*Nc1ccc(C(C)(C)c2ccc(NC(=O)c3cccc(C(*)=O)c3)cc2)cc1 (repeat unit)
226.50 ± 43 °C	*c1ccc(Oc2ccc(N3C(=O)c4ccc(Oc5ccc(C(c6ccc(Oc7ccc8c(c7)C(=O)N(*)C8=O)cc6)(C(F)(F)F)C(F)(F)F)cc5)cc4C3=O)cc2)cc1 (repeat unit)
266.50 °C	*C(=O)c1cc(C(=O)c2ccc3c(c2)C(=O)N(c2cccc(N4C(=O)c5ccc(*)cc5C4=O)c2)C3=O)cc(-c2ccccc2)c1 (repeat unit)

glass transition temperature	Structure (SMILES)
100.00 °C	*Oc1cccc(Oc2ccc(C(=O)O)c(C(=O)Nc3ccc(Oc4ccc(-c5ccc(Oc6ccc(NC(=O)c7cc(*)ccc7C(=O)O)cc6)cc5)cc4)cc3)c2)c1 (repeat unit)
123.00 °C	*Oc1ccc(C(=O)c2ccc(Oc3ccc(C(=O)c4ccc(Oc5cccc(Cc6cccc(*)c6)c5)cc4)cc3)cc2)cc1 (repeat unit)
224.00 °C	*c1c(C)cc(C(c2cccnc2)c2cc(C)c(N3C(=O)CC(Nc4cccc(NC5CC(=O)N(*)C5=O)c4)C3=O)c(C)c2)cc1C (repeat unit)
53.00 °C	*/C=C(\C#N)C(=O)OCCCCCCOC(=O)/C(C#N)=C/c1ccc2c(c1)c1cc(*)ccc1n2CCCCCCCCCCCCCC (repeat unit)
171.00 °C	*Oc1ccc2ccc(Oc3ccc(/C(=N/c4ccc(/N=C(\c5ccccc5)c5ccc(*)cc5)cc4)c4ccccc4)cc3)cc2c1 (repeat unit)
52.00 °C	*Oc1ccc(CC(NC(=O)CCc2ccc(OC(=O)CCCC(*)=O)cc2)C(=O)OC(C)CC)cc1 (repeat unit)
77.00 °C	*CC(*)(C)C(=O)OCCCCOc1ccc(OC(=O)c2ccc(-c3ccc(OC)cc3)cc2)cc1 (repeat unit)
139.00 °C	*Oc1ccc(C(=O)c2cccc(C(=O)c3ccc(*)cc3)c2)cc1 (repeat unit)
113.00 °C	*CCCCCCNC(=O)c1ccc(C(=O)N*)c(Oc2ccc(F)cc2)c1 (repeat unit)
428.00 °C	*Oc1ccc(C2(c3ccc(Oc4ccc5c(=O)n6c7cc(-c8ccc9c(c8)nc8c%10ccc(*)c%11cccc(c(=O)n98)c%11%10)ccc7nc6c6cccc4c56)cc3)c3ccccc3C(=O)c3ccccc32)cc1 (repeat unit)
303.50 °C	*c1ccc(Oc2ccc(-n3c(=O)c4c(Oc5ccc(OC)cc5)c5c(=O)n(*)c(=O)c5c(Oc5ccc(OC)cc5)c4c3=O)cc2)cc1 (repeat unit)
276.00 °C	*c1c(C)cc(-c2cc(C)c(N3C(=O)c4cccc(Oc5c(C)cc(Cc6cc(C)c(Oc7cccc8c7C(=O)N(*)C8=O)c(C)c6)cc5C)c4C3=O)c(C)c2)cc1C (repeat unit)
198.00 °C	*Nc1ccccc1CCc1ccc(NC(*)=O)cc1 (repeat unit)
267.00 °C	*Nc1cccc(NC(=O)CCCCC(=O)Nc2ccc(C(=O)NC(*)=S)cc2)c1 (repeat unit)
320.00 °C	*C(=O)c1ccc2c(c1)C(=O)N(c1ccc(C3(C)CC(C)(C)c4ccc(N5C(=O)c6ccc(*)cc6C5=O)cc43)cc1)C2=O (repeat unit)
129 ± 5.4 °C	*CCCCCCNC(=O)c1cccc(C(=O)N*)c1 (repeat unit) [Poly(hexamethylene isophthalamide) ]
150.00 °C	*c1ccc(Oc2ccc(C(C)(C)c3ccc(Oc4ccc(N5C(=O)CC(=O)N(*)C5=S)cc4)cc3)cc2)cc1 (repeat unit)
159.00 °C	*Oc1ccc(C(c2ccc(Oc3ccc(C(=O)c4cccc(-c5cccc(C(=O)c6ccc(*)cc6)c5)c4)cc3)cc2)(C(F)(F)F)C(F)(F)F)cc1 (repeat unit)

— the PolyMetriX glass transition set
